Results reported in patent US20230348362A1, “LIPID COMPOUNDS AND LIPID NANOPARTICLE COMPOSITIONS” (Suzhou Abogen Biosciences Co., Ltd., priority 2021, published 2023).
Like-named read-outs stand apart in the source and are kept apart here.

How the values were obtained:
[1] = Lipid nanoparticle size and polydispersity by dynamic light scattering; type: physicochemical; settings: LNP of lipid/DSPC/cholesterol/PEG-lipid 50:10:38.5:1.5 encapsulating hEPO mRNA
Summary of the method: (§1)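 LNPs made from ionizable lipid/DSPC/cholesterol/PEG-lipid (50:10:38.5:1.5) and mRNA in citrate pH 4 by microfluidic mixing, lipid:mRNA about 10:1–30:1 w/w, then dialysed into DPBS and filtered. Size and PDI measured by DLS in backscatter mode; encapsulation efficiency measured by RiboGreen assay.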

[2] = Encapsulation efficiency of lipid nanoparticles, Quant-it Ribogreen RNA assay; type: physicochemical; settings: LNP of lipid/DSPC/cholesterol/PEG-lipid 50:10:38.5:1.5 encapsulating hEPO mRNA
Summary of the method: as §1

[3] = Apparent pKa of LNP formulations, TNS fluorescence assay; type: physicochemical; settings: LNP cationic lipid/DSPC/cholesterol/DMG-PEG 50/10/38.5/1.5 mol %
Summary of the method: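 LNPs (cationic lipid/DSPC/cholesterol/DMG-PEG 50/10/38.5/1.5 mol %) diluted to 0.1 mg/mL total lipid in citrate/phosphate/borate/NaCl buffers spanning pH 3–9 with TNS. Fluorescence (ex 325, em 435 nm) read at room temperature; pKa taken as the pH at half-maximal intensity from sigmoidal fit.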

[4] = Lipid clearance study: lipid remaining in liver tissue by LC-MS/MS; settings: ICR female mice, 0.5 mg/kg i.v. bolus dose mRNA
Method: (§2) LNPs were injected into mice via the tail vein (ICR female, IV, 0.5 mg mRNA/kg), then mice were anesthetized under carbon dioxide at different time (e.g., 6 h, 24 h, and 48 h) after administration and sacrificed via cardiac puncture. Liver tissue were collected immediately, and then washed by ice-cold saline. Liver samples were weighed and homogenized in ice water bath by adding pre-chilled 20% methanol-water (v/v) at 2˜8° C. with the ratio of 1:5 (w/v). The homogenized tissue samples were stored in −90˜−60° C. freezer prior to analysis.
(§3) Sample Processing. All liver tissue homogenate samples were allowed to thaw at room temperature. An aliquot of 50 μL of sample was added with 50 μL MgCl2 (2M), then added with ACN which contains of Verapamil, 5 ng·mL^−1 and Glibenclamide, 50 ng·mL^−1 and Diclofenac, 200 ng·mL^1 and Tolbutamide, 200 ng·mL^1 for protein precipitation, then centrifuged at 13000 rpm for 8 min. Then 100 μL of supernatant was added with 100 μL water, then vortexed well. An aliquot of 5 μL of the mixture was injected into the LC-MS/MS system.

[5] = mouse, in vivo, iv, 0.5 mg/kg
Method: as §2, §3

| Structure (SMILES) | polydispersity [1] | size (nm) [1] [nm] | Encapsulation Efficiency [2] [%] | Apparent Pka [3] | % Dose Remaining in Liver Tissue ([4]; 6 h) [%] | % Dose Remaining in Liver Tissue ([4]; 24 h) [%] | % Dose Remaining in Liver Tissue ([4]; 48 h) [%] | % Dose Remaining in Liver Tissue ([5]; 6 h) [%] | % Dose Remaining in Liver Tissue ([5]; 24 h) [%] | % Dose Remaining in Liver Tissue ([5]; 48 h) [%] |
| --- | --- | --- | --- | --- | --- | --- | --- | --- | --- | --- |
| CCCCCCCCCCCOC(=O)CCCCCN(CCN(CCO)CCCCCC(=O)OCC(CCCCCCCC)CCCCCCCC)C1CCCCC1 [Compound 21] | 0.042 | 81.93 | 92.3 | 6.361 | 94.55 | 67.66 | 24.38 | – | – | – |
| CCCCCCCC(=O)OCC(CCCCN(CCO)CCN(CCCCC(COC(=O)CCCCCCC)COC(=O)CCCCCCC)C1CCC1)COC(=O)CCCCCCC [Compound 71] | 0.091 | 65.56 | 89.25 | 6.489 | 1.34 | 0.00 | 0.00 | – | – | – |
| CCCCCCCCC(CCCCCCCC)CC(=O)NCCCCCN(CCN(CCO)CCCCCOC(=O)CC(CCCCCCCC)CCCCCCCC)C1CCCCCC1 [Compound 74] | 0.05 | 67.96 | 92.74 | – | 48.44 | 50.42 | 50.83 | – | – | – |
| CCCCCCCCCCCOC(=O)CCCCCN(CCN(CCO)CCCCCOC(=O)N(CCCCCCCC)CCCCCCCC)C1CCCCC1 [Compound 99] | 0.135 | 87.73 | 83.64 | – | 22.45 | 16.39 | 14.08 | – | – | – |
| CCCCCCCCC(CCCCCC)CNC(=O)CCCCCN(CCCCCO)CCN(CCCCC(COC(=O)CCCCCCC)COC(=O)CCCCCCC)C1CCCCCCC1 (stereo not shown) [Compound 210] | 0.06 | 79.56 | 91.52 | 6.49 | – | – | – | – | – | – |
| CCCCCCCCC(CCCCCC)CNC(=O)CCCCN(CCO)CCN(CCCCC(COC(=O)CCCCCCC)COC(=O)CCCCCCC)C1CCCCCCC1 (stereo not shown) [Compound 214] | 0.058 | 76.29 | 89.14 | 6.789 | – | – | – | – | – | – |
| CCCCCCCCC(CCCCCC)CNC(=O)CCCCCCCN(CCO)CCN(CCCCC(COC(=O)CCCCCCC)COC(=O)CCCCCCC)C1CCCCCCC1 (stereo not shown) [Compound 215] | 0.033 | 67.78 | 90.80 | 6.542 | – | – | – | – | – | – |
| CCCCCCCCC(CCCCCCCC)CNC(=O)CCCCCN1CCC(N(CCO)CCCCC(COC(=O)CCCCCCC)COC(=O)CCCCCCC)CC1 [Compound 218] | 0.043 | 82.04 | 93.64 | – | 7.38 | 1.03 | 0.17 | – | – | – |
| CCCCCCCC(=O)OCC(CCCCN(CCO)CCCCN(CCCCC(COC(=O)CCCCCCC)COC(=O)CCCCCCC)C1CCC1)COC(=O)CCCCCCC [Compound 219] | 0.103 | 91.17 | 94.13 | 6.327 | – | – | – | – | – | – |
| CCCCCCCCC(CCCCCCCC)COC(=O)CCCCCN(CCCCN(CCO)CCCCC(COC(=O)CCCCCCC)COC(=O)CCCCCCC)C1CCC1 [Compound 220] | 0.15 | 94.56 | 94.84 | – | 7.87 | 1.98 | 0.52 | – | – | – |
| CCCCCCCCCCCOC(=O)CCCCCN(CCN(CCO)CCCCC(COC(=O)CCCCCCC)COC(=O)CCCCCCC)C1CCCCC1 [Compound 221] | 0.07 | 99.33 | 93.71 | 6.316 | – | – | – | – | – | – |
| CCCCCCCCOC(=O)C(CCCCN(CCN(CCO)CCCCCC(=O)OCC(CCCCCC)CCCCCCCC)C1CCC1)C(=O)OCCCCCCCC (stereo not shown) [Compound 223] | 0.043 | 70.98 | 93.03 | 6.395 | – | – | – | – | – | – |
| CCCCCCCCC(CCCCCC)CNC(=O)CCCCCN(CCCCCO)CCN(CCCCC(COC(=O)CCCCCCC)COC(=O)CCCCCCC)C1CCCC1 (stereo not shown) [Compound 224] | 0.027 | 104.1 | 85.65 | 6.748 | – | – | – | – | – | – |
| CCCCCCCCC(CCCCCC)CNC(=O)CCCCCN(CCCCCO)CCN(CCCCC(COC(=O)CCCCCCC)COC(=O)CCCCCCC)C1CCCCCC1 (stereo not shown) [Compound 225] | 0.033 | 76.81 | 92.20 | 6.668 | – | – | – | – | – | – |
| CCCCCCCCC(CCCCCC)CNC(=O)CCCCN(CCO)CCN(CCCCC(COC(=O)CCCCCCC)COC(=O)CCCCCCC)C1CCCC1 (stereo not shown) [Compound 227] | 0.048 | 83.54 | 91.70 | 6.872 | – | – | – | – | – | – |
| CCCCCCCCC(CCCCCC)CNC(=O)CCCCN(CCO)CCN(CCCCC(COC(=O)CCCCCCC)COC(=O)CCCCCCC)C1CCCCCC1 (stereo not shown) [Compound 229] | 0.042 | 77.73 | 92.04 | 6.849 | – | – | – | – | – | – |
| CCCCCCCCC(CCCCCC)CNC(=O)CCCCCCN(CCO)CCN(CCCCC(COC(=O)CCCCCCC)COC(=O)CCCCCCC)C1CCCC1 (stereo not shown) [Compound 230] | 0.051 | 89.46 | 89.65 | 6.742 | – | – | – | – | – | – |
| CCCCCCCCC(CCCCCC)CNC(=O)CCCCCCN(CCO)CCN(CCCCC(COC(=O)CCCCCCC)COC(=O)CCCCCCC)C1CCCCC1 (stereo not shown) [Compound 231] | 0.036 | 73.66 | 92.25 | 6.712 | – | – | – | – | – | – |
| CCCCCCCCC(CCCCCC)CNC(=O)CCCCCCN(CCO)CCN(CCCCC(COC(=O)CCCCCCC)COC(=O)CCCCCCC)C1CCCCCC1 (stereo not shown) [Compound 232] | 0.031 | 77.78 | 92.47 | 6.567 | – | – | – | – | – | – |
| CCCCCCCCC(CCCCCC)CNC(=O)CCCCCCN(CCO)CCN(CCCCC(COC(=O)CCCCCCC)COC(=O)CCCCCCC)C1CCCCCCC1 (stereo not shown) [Compound 233] | 0.052 | 76.91 | 91.15 | 6.463 | – | – | – | – | – | – |
| CCCCCCCCC(CCCCCC)CNC(=O)CCCCCCCN(CCO)CCN(CCCCC(COC(=O)CCCCCCC)COC(=O)CCCCCCC)C1CCCC1 (stereo not shown) [Compound 234] | 0.035 | 67.07 | 88.68 | 6.566 | – | – | – | – | – | – |
| CCCCCCCCC(CCCCCC)CNC(=O)CCCCCCCN(CCO)CCN(CCCCC(COC(=O)CCCCCCC)COC(=O)CCCCCCC)C1CCCCC1 (stereo not shown) [Compound 235] | 0.093 | 67.92 | 88.53 | 6.545 | – | – | – | – | – | – |
| CCCCCCCCC(CCCCCCCC)COC(=O)CCCCCN1CCC(N(CCO)CCCCC(COC(=O)CCCCCCC)COC(=O)CCCCCCC)CC1 [Compound 261] | 0.066 | 82.86 | 95.18 | 6.552 | – | – | – | – | – | – |
| CCCCC/C=C\C/C=C\CCCCCCCCC(CCCCCCCC/C=C\C/C=C\CCCCC)OC(=O)CCCN(C)C [MC3, dilinoleylmethyl-4-dimethylaminobutyrate] | – | – | – | – | – | – | – | 69.39 | 61.63 | 52.47 |
